From patent US20170196821A1, “Method of Inhibiting Mucin Secretion” (Reckitt Benckiser LLC, priority 2009, published 2017)
Entries after “also recorded” stand apart in the source; their conditions may differ.

What was measured:
[1] = tested on: EpiAirway cultures (normal human bronchial epithelial) cells; experiment: Mucociliary clearance: rate of movement of endogenous cell debris on EpiAirway cultures; assay type: cell-based
Experimental: EpiAirway cultures (normal human bronchial epithelial) cells grown on Millipore Transwells, 1 or 4.2 cm^2 surface area. The cells were purchased from MatTek, and were cultured at air-liquid interface for two (mucus synthesis and secretion) or three (mucociliary transport and mucus rheology) weeks prior to use. For mucociliary clearance, a stock guaifenesin solution of 2 mg/mL in culture medium was prepared in the morning of each experiment and kept cold until dilution into warmed medium to the target concentrations of 0.2, 2, 20 or 200 μg/mL. The medium in the basolateral compartment of each culture was replaced with the GGE-containing medium, and the cultures were returned to the 37° C., 5% CO2 incubator for as the times indicated. The experiments were repeated three times on independent cultures. Cultures (4.2 cm^2) were exposed to basolateral guaifenesin for 1 or 6 hr. […] The rate of movement of endogenous cell debris was analyzed on the video images using a transparent template overlay on the video images and a stopwatch to measure at least 5 particles on each culture, for a total of between 30 and 45 measurements per condition. For mucociliary clearance, differences between control and guaifenesin treatment groups were assessed by comparing the means using ANOVA, with a Bonferroni post-test to assess differences from the controls tested at the same time after treatment. […]

MUC5AC mucins = experiment: MUC5AC mucin secretion and production by ELISA in EpiAirway (NHBE) cultures at air/liquid interface; assay type: cell-based, human
Experimental: EpiAirway cultures (normal human bronchial epithelial) cells grown on Millipore Transwells, 1 or 4.2 cm^2 surface area. The cells were purchased from MatTek, and were cultured at air-liquid interface for two (mucus synthesis and secretion) or three (mucociliary transport and mucus rheology) weeks prior to use. GUAIFENESIN solutions were prepared by dissolving in PBS (phosphate buffered saline) immediately before treatment of the cells. MUCSAC mucins were quantified by ELISA using 45M1 antibody (Labvision, Fremont, Calif.). Confluent 1 cm^2 NHBE cells grown on an air/liquid interface were washed from the apical surface with 200 μL PBS and incubated with fresh complete growth medium added to the basal chamber. Cultures were incubated 24 hours to collect the apical fluid (pretreatment sample or PT) by adding 100 μL PBS to the apical surface of the cultures. PBS was added to dilute the highly viscous, thin mucus layer on the surface. Because of the small size of the insert, it was not feasible to collect a sufficient amount of mucus for both pharmacology and rheology without the addition of PBS. After collecting 100 μL of the diluted mucus samples (PT), cultures were divided into three groups (6 hr, 24 hr and 48 hr), 16 inserts per group, and treated with varying concentrations of guaifenesin (0, 0.2, 2, 20 μg/mL) for each time group, 4 inserts per each dose. Thus, a total of 48 inserts were used for this study (4 inserts/dose×4 doses/time point×3 time points). The apical fluid was collected at 30 minutes following drug treatment from all the cultures to see whether guaifenesin affects the “secretion” of mucins. The apical mucus sample was collected in two steps—first by adding 100 μL PBS to the apical surface (1st wash) and then by adding 100 μL PBS containing 5 mM dithiothreitol (DTT) (2nd wash). Samples from each wash were assayed for MUC5AC content and the sum of the two values (the 1st and 2nd wash) was expressed as the “released MUC5AC” of the culture. At the three different time points (i.e., 6, 24, and 48 hr), cultures were washed to collect the apical fluid as described above (“released mucin”) and lysed using a lysis buffer (PBS, pH 7.2, […], 2 mM EDTA, 1 mM PSMF and 5 mM DTT) (“cellular mucin”). The amount of mucin in each sample (either secreted, released or cell lysate) was divided by the amount of mucin in the PT sample collected from the same well in order to obtain a “secretory index” to compensate for the variations among the cultures. The treatment protocol is depicted in FIG. 1. For mucin secretion, differences between control and guaifenesin treatment groups were assessed by comparing the means using Student's t-test for unpaired samples and p<0.05 was considered significant. All the values in the figures represent means ±SEM of 4 cultures unless otherwise stated. *p<0.05, **p<0.01

apical mucus secretions = experiment: Rheologic measurements of apical mucus secretions from EpiAirway cultures; assay type: cell-based, human
Experimental: EpiAirway cultures (normal human bronchial epithelial) cells grown on Millipore Transwells, 1 or 4.2 cm^2 surface area. The cells were purchased from MatTek, and were cultured at air-liquid interface for two (mucus synthesis and secretion) or three (mucociliary transport and mucus rheology) weeks prior to use. Following the analysis of clearance, mucus was harvested from the apical surface of the cultures, without dilution. The rheological properties of apical mucus secretions (20 μL) were measured using an AR1000 controlled stress rheometer (TA Instruments, New Castle, Del.) using a parallel plate geometry. The dynamic linear viscoelastic behavior was determined from the strain response to an oscillating stress and reported as a storage or elastic modulus (G′), and loss or viscous (G″) modulus, as a function of frequency ω such that viscosity, η′=G″/ω. Rheologic data can also be presented using vectorial notation as tangent δ which is the ratio of viscosity to elasticity and G*, the vector sum of viscosity and elasticity (mechanical impedance). When stress in the linear range is used to evaluate the materials, the material properties are independent of stress. In order to conduct a frequency sweep from 0.1 to 1000 rad/s, viscoelasticity was evaluated using a creep test at 0.5 Pa for 2 minutes. The strain response was fitted to a discrete relaxation spectrum, transformed to the retardation spectrum, and then to the storage and loss moduli, as a function of frequency, using methods developed by the PI. The linear viscoelasticity was evaluated at 1 and 100 rad/s and an oscillatory stress sweep and steady shear flow experiments were used to evaluate the behavior in the non-linear ranges. The oscillatory sweep data were analyzed by observing the stress where G′ and G″ crossed. […] All rheologic measurements were made by technicians who were blinded to the treatment group origin. For rheology experiments, data were analyzed using the StatView™ 5 statistics package. Raw data were visually confirmed to be normally distributed about the mean. […]

[2] = tested on: EpiAirway cultures (normal human bronchial epithelial) cells; experiment: Viability: metabolic activity by Water Soluble Tetrazolium (WST) assay; assay type: cell-based; details: 1 or 6 hr treatment
Experimental: EpiAirway cultures (normal human bronchial epithelial) cells grown on Millipore Transwells, 1 or 4.2 cm^2 surface area. The cells were purchased from MatTek, and were cultured at air-liquid interface for two (mucus synthesis and secretion) or three (mucociliary transport and mucus rheology) weeks prior to use.
The apical surfaces of the cultures were then washed with PBS and the metabolic activity, an indicator of viability, was measured using the Water Soluble Tetrazolium (WST) assay (Boehringer).
Metabolic activity was assessed using the WST assay, separately added to the apical or basal surfaces of the cultures.

[3] = 24 hour treatment, 2 μg/mL or 20 μg/mL

SMILES: COc1ccccc1OCC(O)CO (centres unmarked) [guaifenesin, 3-(2-methoxyphenoxy)-1,2-propanediol]
- mucociliary clearance (mobility of cellular debris on culture surface) ([1]; 1 hr treatment, only 2 μg/ml statistically significant, little dose-response): appeared to increase the mobility of the cellular debris
- mucociliary clearance (movement of surface material) ([1]; 6 hr treatment, all three concentrations tested, strong trend to a dose response): significantly faster than the control
- secreted MUC5AC versus control (MUC5AC mucins; 30 min treatment, 0.2, 2, 20 μg/mL): no significant difference
- total amounts of mucins produced (MUC5AC mucins; 6 hour treatment, 2 μg/ml and 20 μg/ml): significantly (p<0.01) suppressed; also recorded: suppressed the production of mucins
- amounts of mucins released (MUC5AC mucins; 6 hours treatment, NHBE cells): did not affect
- mucin production (MUC5AC mucins; [3]): significantly suppressed; also recorded: suppressed the production of mucins
- mucin release (MUC5AC mucins; [3]): significantly suppressed; also recorded: significant (p<0.05) decrease in mucin release
- amount of mucin released (MUC5AC mucins; 48 hours treatment): did not seem to be significantly affected
- production of mucins (MUC5AC mucins; 48 hours treatment, 2 μg/mL and 20 μg/mL): significantly (p<0.01) suppressed; also recorded: suppressed the production of mucins
- viscosity, elasticity and complex modulus (G*) of mucus (apical mucus secretions; 1 rad/s (ciliary frequency), 1 hour, p<0.05): dose-dependent decrease
- viscosity, elasticity and complex modulus (G*) of mucus (apical mucus secretions; 1 rad/s (ciliary frequency), 6 hours, p<0.01): dose-dependent decrease
- viscosity, elasticity and complex modulus (G*) of mucus (apical mucus secretions; 100 rad/s (corresponding to cough)): not significantly
- viability of the cells (WST assay) [2]: no adverse effect on the viability
- metabolic activity (WST assay) ([2]; did not reach statistical significance): trend to increased metabolic activity
